Bridge positions count the residues as written; N and C are the ends. Square brackets hold non-standard residues; d marks the D form. Peptide text beside a SMILES is read from it. I, II: the chains in the order shown. Aoc = NCCCCCCCC(=O)O
Legend:
S. mutans [1] = assay: Post-antibiotic effect assay, S. mutans; assay type: cell-based, Streptococcus mutans; conditions: S. mutans monoculture; peptide 10 min, then fresh medium; FIG. 17A
Protocol: (§1) The activity and selectivity of MH-STAMPs after a 10 min incubation was determined by growth retardation experiments against targeted and untargeted bacteria in monocultures, as described previously (Id.). Cells from overnight cultures were diluted to ˜5×10^6 cfu/mL in MH (or TH with 1% sucrose for S. mutans), normalized by OD600 0.05-0.1 and seeded to 96-well plates. Cultures were then grown under the appropriate conditions for 2 h (3 h for S. mutans) prior to the addition of peptides for 10 min. Plates were then centrifuged at 3000×g for 5 min, the supernatants discarded, fresh medium returned (MH or TH without sucrose for S. mutans), and incubation resumed. Bacterial growth after treatment was then monitored over time by OD600.
(§2) MH-STAMP antimicrobial kinetics was ascertained utilizing a variation of the classical post-antibiotic effect assay, which measures the ability of an agent to affect an organism's growth after a short exposure period. Monocultures of MH-STAMP-targeted and untargeted organisms were exposed to M8(KH)-20, M8(BL)-20, BL(KH)-20, or unmodified BD2.20, then allowed to recover. […] Furthermore, replacement of the targeting region with a non-binding peptide abolishes specific activity.

P. aeruginosa = assay: Post-antibiotic effect assay, P. aeruginosa; assay type: cell-based, Pseudomonas aeruginosa; conditions: P. aeruginosa monoculture; peptide 10 min, then fresh medium; FIG. 17B
Protocol: as §1, §2

S. epidermidis [2] = assay: Post-antibiotic effect assay, S. epidermidis; assay type: cell-based, Staphylococcus epidermidis; conditions: S. epidermidis monoculture; peptide 10 min, then fresh medium; FIG. 17C
Protocol: as §1, §2

S. aureus = assay: Post-antibiotic effect assay, S. aureus; assay type: cell-based, Staphylococcus aureus; conditions: S. aureus monoculture; peptide 10 min, then fresh medium; FIG. 17D
Protocol: as §1, §2

E. coli [3] = assay: Post-antibiotic effect assay, E. coli; assay type: cell-based, Escherichia coli; conditions: E. coli monoculture; peptide 10 min, then fresh medium; FIG. 17E
Protocol: as §1, §2

[4] = test system: Mixed planktonic populations of P. aeruginosa, E. coli, S. epidermidis, and S. mutans; assay: Microbial population shift assay; assay type: cell-based; conditions: mixed culture, 10 μM peptide, 24 h, detection limit 200 cfu/mL, FIG. 18; for surviving P. aeruginosa: input ~0.5×10^4 cfu/mL; for surviving E. coli / surviving S. epidermidis: input ~2×10^4 cfu/mL; for surviving S. mutans: input ~6×10^4 cfu/mL
Protocol: Peptide (10 μM) or mock-treatment (1×PBS) was then added and samples were incubated at 37° C. for 24 h under anaerobic conditions (80% N2, 15% CO2, 5% H2). […] Plates were then incubated 37° C. under aerobic conditions (TH plates were incubated anaerobically) and colonies counted after 24 h to determine survivors. […] Gram stains and direct microscopic observation (from select isolated colonies) were undertaken to confirm species identity (data not shown). The detection limit of the assay was 200 cfu/mL.
We hypothesized that potential MH-STAMP dual-functionality could affect a particular set of bacteria within a mixed population, thereby promoting the outgrowth of non-targeted organisms and “shifting” the constituent makeup. To examine this possibility, defined mixed populations of planktonic cells were treated continuously and the make-up of the community examined after 24 h.

S. mutans [5] = assay: MIC test (broth microdilution) / antimicrobial activity, S. mutans; assay type: cell-based, Streptococcus mutans
Protocol: (§3) The active AMPs, STAMPs and the like can be identified and/or validated using an in vitro screening assay.
(§4) It will be appreciated that other assays as are well known in the art or that will become apparent to those having skill in the art upon review of this disclosure may also be used to identify active AMPs. Such assays include, for example, the assay described in Lehrer et al. (1988) J. Immunol.
(§5) Peptides were evaluated for basic antimicrobial activity by broth microdilution, as described previously (Eckert et al. (2006) Antimicrob Agents Chemother., 50: 3651-3657; Eckert et al. (2006) Antimicrob Agents Chemother., 50: 1480-1488). Briefly, ˜1×10^5 cfu/mL bacteria were diluted in TH (S. mutans), or Mueller-Hinton (MH) broth (all other organisms) and distributed to 96-well plates. Serially-diluted (2-fold) peptides were then added and the plates incubated at 37° C. for 18-24 h. […] All experiments were conducted 10 times.

MRSA = assay: MIC test / antimicrobial activity, MRSA; assay type: cell-based, Methicillin-resistant Staphylococcus aureus
Protocol: as §3, §4, §5

S. epidermidis [6] = assay: MIC test (broth microdilution) / antimicrobial activity, S. epidermidis; assay type: cell-based, Staphylococcus epidermidis; conditions: S. epidermidis
Protocol: as §3, §4, §5

E. coli [7] = assay: MIC test (broth microdilution) / antimicrobial activity, E. coli; assay type: cell-based, Escherichia coli
Protocol: as §3, §4, §5

S. pneumoniae = assay: MIC test / antimicrobial activity, S. pneumoniae; assay type: cell-based, Streptococcus pneumoniae
Protocol: as §3, §4, §5

microorganisms [8] = assay: Peptide activities: targeting/binding, antimicrobial, growth or phenotype altering (Tables 7, 8); assay type: cell-based; conditions: peptides having multiple activities
microorganisms [9] = assay: Morphology, biofilm and growth disrupting peptides (Table 5); assay type: cell-based; design: key: A: Peptide aggregates; B: Less hyphal formation; Clumps; Diffuse clumps and small polyps; F: Diffuse growth; H: Thin; I: Growth inhibition; Microcolony formation; Rippled; Small polyps; Thick; W: Halo formation on top, microlonies on bottom
Excerpt: In certain embodiments peptides that induce alterations in phenotype or other biological activities can also be used as antimicrobial effector moieties.

Row | Compound | growth after treatment (culture recovery, OD600) (S. mutans [1]) | growth after treatment (culture recovery, OD600) (P. aeruginosa) | growth after treatment (culture recovery, OD600) (S. epidermidis [2]) | growth after treatment (culture recovery, OD600) (S. aureus) | growth after treatment (culture recovery, OD600) (E. coli [3]) | surviving P. aeruginosa [4] | surviving E. coli [4] | surviving S. epidermidis [4] | surviving S. mutans [4] | Organism MIC (μM) (S. mutans [5]) | Organism MIC (μM) (MRSA) | Organism MIC (μM) (S. epidermidis [6]) | Organism MIC (μM) (E. coli [7]) | Organism MIC (μM) (S. pneumoniae) | Activities (microorganisms [8]) | Organism, effect (microorganisms [9]; C. albicans) | Organism, effect (microorganisms [9]; MRSA) | Organism, effect (microorganisms [9]; S. epidermidis) | Organism, effect (microorganisms [9]; S. mutans) | Organism, effect (microorganisms [9]; S. pneumoniae)
1 | CC[C@H](C)[C@H](NC(=O)[C@@H](N)Cc1ccccc1)C(=O)N[C@@H](CCCNC(=N)N)C(=O)N[C@@H](CCCCN)C(=O)N[C@@H](Cc1ccccc1)C(=O)N[C@@H](CC(C)C)C(=O)N[C@@H](CCCCN)C(=O)N[C@@H](CCCCN)C(=O)N[C@@H](Cc1c[nH]c2ccccc12)C(=O)N[C@@H](CC(C)C)C(=O)N[C@@H](CC(C)C)C(N)=O [BD2.20] (H-FIRKFLKKWLL-NH2; N-terminus assumed) | robust antimicrobial activity | robust antimicrobial activity | inhibited | inhibited | inhibited | significant loss of recoverable cfu/mL | significant loss of recoverable cfu/mL | significant loss of recoverable cfu/mL | significant loss of recoverable cfu/mL | – | – | – | – | – | – | – | – | – | – | –
2 | CC[C@H](C)[C@H](NC(=O)[C@H](Cc1ccccc1)NC(=O)CCCCCCCNC(=O)[C@H](CCCCNC(=O)CNC(=O)CNC(=O)CNC(=O)[C@H](C)NC(=O)[C@H](CCC(=O)O)NC(=O)[C@H](CC(N)=O)NC(=O)[C@H](C)NC(=O)[C@H](C)NC(=O)[C@@H](N)CC(=O)O)NC(=O)CNC(=O)CNC(=O)CNC(=O)[C@H](CCCNC(=N)N)NC(=O)[C@H](CC(N)=O)NC(=O)[C@H](CC(C)C)NC(=O)[C@H](Cc1ccccc1)NC(=O)[C@H](CCCNC(=N)N)NC(=O)[C@H](Cc1ccccc1)NC(=O)[C@H](Cc1ccccc1)NC(=O)[C@@H](NC(C)=O)[C@@H](C)O)C(=O)N[C@@H](CCCNC(=N)N)C(=O)N[C@@H](CCCCN)C(=O)N[C@@H](Cc1ccccc1)C(=O)N[C@@H](CC(C)C)C(=O)N[C@@H](CCCCN)C(=O)N[C@@H](CCCCN)C(=O)N[C@@H](Cc1c[nH]c2ccccc12)C(=O)N[C@@H](CC(C)C)C(=O)N[C@@H](CC(C)C)C(N)=O [M8(BL)-20] (I: Ac-TFFRFLNRGGGK[Aoc]FIRKFLKKWLL-NH2 / II: H-DAANEAGGG; amide I:12-II:C) | effectively retarded | – | – | – | – | not affected or affected to a lesser extent | not affected or affected to a lesser extent | not affected or affected to a lesser extent | greatly reduced compared to input cfu/mL | – | – | – | – | – | – | – | – | – | – | –
3 | FESKILNASKELDKEKKVNTALSFNSHQDFAKAYQNGKI [PF-606] | – | – | – | – | – | – | – | – | – | S. mutans, 50 μM | MRSA, 50 μM | S. epidermidis, 50 μM | E. coli, 50 μM | S. pneumoniae, 50 μM | G M | C. albicans (B) | MRSA (I) | S. epidermidis (I) | S. mutans (I) | S. pneumoniae (H)
